Where a SMILES comes first, the peptide text is derived from it. Bridges are numbered along the chain shown (N, C = ends). [ ]: non-standard residue; d: D form. The star is where a group is joined. ξ: configuration not given here. Trp(βS-Me) = C[C@@H](c1c[nH]c2ccccc12)[C@H](N)C(=O)O; Trp(5-CN) = N#Cc1ccc2[nH]cc(C[C@H](N)C(=O)O)c2c1; Phe(3-CF3) = N[C@@H](Cc1cccc(C(F)(F)F)c1)C(=O)O; Ala(morpholin-4-yl) = N[C@@H](CN1CCOCC1)C(=O)O; Phe(4-COOH) = N[C@@H](Cc1ccc(C(=O)O)cc1)C(=O)O; Bip = N[C@@H](Cc1ccc(-c2ccccc2)cc1)C(=O)O; Phe(3-Me) = Cc1cccc(C[C@H](N)C(=O)O)c1; Val(3-OH) = CC(C)(O)[C@H](N)C(=O)O; 4Pal = N[C@@H](Cc1ccncc1)C(=O)O; Cha = N[C@@H](CC1CCCCC1)C(=O)O; Ile(3ξ) = CCC(C)[C@H](N)C(=O)O; Thr(3ξ) = CC(O)[C@H](N)C(=O)O; NMeNle = CCCC[C@H](NC)C(=O)O; Carboxymethyl = O=C(O)C*; Orn = NCCC[C@H](N)C(=O)O; Pra = C#CC[C@H](N)C(=O)O; dDap = NC[C@@H](N)C(=O)O; Dab = NCC[C@H](N)C(=O)O; Dap = NC[C@H](N)C(=O)O
Target: T1, human PD-1 / PD-L1-Ig binding on Jurkat cell line over-expressing human PD-1 (Jurkat-PD-1) (Homo sapiens, UniProt Q15116)
T1 construct: expressed in transfected cells; host or cells: Jurkat
Assay: Jurkat-PD-1 Cell Binding High-Content Screening Assay (CBA)
Type: cell-based
Settings: Jurkat-PD-1 cells, PE-labeled PD-L1-Ig 20 nM final; read-out: Jurkat HPD1_PDL1 IC50
Procedure, shortened: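 PE-PD-L1-Ig 20 nM final; cells in DMEM/10% FCS; cpd pre-incubation 2 h, 37° C; ligand 1 h; PFA fix + Hoechst 33342; high-content imaging read-out.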

T1 sequence (Q15116 25-288): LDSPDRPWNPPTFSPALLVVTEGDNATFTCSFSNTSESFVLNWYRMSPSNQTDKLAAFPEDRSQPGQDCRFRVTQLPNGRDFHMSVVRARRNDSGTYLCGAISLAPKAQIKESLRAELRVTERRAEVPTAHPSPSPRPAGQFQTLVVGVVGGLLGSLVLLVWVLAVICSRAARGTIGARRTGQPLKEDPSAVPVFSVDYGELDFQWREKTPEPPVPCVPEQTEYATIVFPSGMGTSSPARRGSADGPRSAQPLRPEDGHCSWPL

In order of rising IC50:
1. CC(C)C[C@H]1NC(=O)[C@H](CCCN)NC(=O)[C@H](Cc2ccc(C(=O)O)cc2)NC(=O)[C@H](Cc2ccc(-c3ccccc3)cc2)NC(=O)[C@H](Cc2c[nH]c3ccc(C#N)cc23)NC(=O)[C@H](Cc2cccc(C(F)(F)F)c2)NC(=O)[C@H](CC(=O)O)NC(=O)[C@H](Cc2ccc(C(=O)O)cc2)NC(=O)[C@H](CN2CCOCC2)NC(=O)CSC[C@@H](C(=O)N[C@@H](CCN)C(N)=O)NC(=O)[C@H](CCC(=O)O)NC(=O)[C@H](C(C)C)NC(=O)[C@H](CC2CCCCC2)NC(=O)[C@H](CCN)NC1=O [Example 2740] ({CH2CO}-[Ala(morpholin-4-yl)][Phe(4-COOH)]D[Phe(3-CF3)][Trp(5-CN)][Bip][Phe(4-COOH)][Orn][dL][Dab][Cha]VEC[Dab]-NH2; thioether N-14)  4.8 nM
2. C#CC[C@H](NC(=O)[C@H](CCN)NC(=O)[C@@H]1CSCC(=O)N[C@@H](CN2CCOCC2)C(=O)N[C@@H](Cc2ccc(OCC(=O)O)cc2)C(=O)N[C@@H](CC(=O)O)C(=O)N[C@@H](Cc2cccc(C)c2)C(=O)N[C@@H](Cc2ccc(OCC(=O)O)cc2)C(=O)N[C@@H](Cc2ccc(-c3ccccc3)cc2)C(=O)N[C@@H](Cc2ccc(OCC(=O)O)cc2)C(=O)N[C@@H](CCCN)C(=O)N[C@H](CC(C)C)C(=O)N[C@@H](CCN)C(=O)N[C@@H](CC2CCCCC2)C(=O)N[C@@H](C(C)C)C(=O)N[C@@H](CCC(=O)O)C(=O)N1)C(=O)O [Compound 1827] ({CH2CO}-[Ala(morpholin-4-yl)]Y(Carboxymethyl)D[Phe(3-Me)]Y(Carboxymethyl)[Bip]Y(Carboxymethyl)[Orn][dL][Dab][Cha]VEC[Dab][Pra]-OH; thioether N-14)  9.4 nM
3. CC[C@H](C)[C@@H]1NC(=O)[C@H](Cc2ccc(-c3ccccc3)cc2)NC(=O)[C@H](C(C)C)NC(=O)[C@H](Cc2c[nH]c3ccccc23)NC(=O)[C@H](CC(=O)O)NC(=O)[C@H](Cc2ccc(O)cc2)NC(=O)[C@H](CC(N)=O)NC(=O)CSC[C@@H](C(=O)N[C@@H](C)C(N)=O)NC(=O)[C@H](CO)NC(=O)[C@H](C(C)C)NC(=O)[C@H](CC(C)C)NC(=O)[C@H](CCN)NC(=O)[C@@H](CC(C)C)NC(=O)[C@H](CCCCN)NC1=O [Compound 1119] ({CH2CO}-NYDWV[Bip]IK[dL][Dab]LVSCA-NH2; thioether N-14)  13.3 nM
4. CC(C)C[C@H]1NC(=O)[C@H](CCCN)NC(=O)[C@H](C(C)C)NC(=O)[C@H](Cc2ccc(-c3ccccc3)cc2)NC(=O)[C@H](C(C)C)NC(=O)[C@H](Cc2cccc(C(F)(F)F)c2)NC(=O)[C@H](CC(=O)O)NC(=O)[C@H](Cc2ccc(C(=O)O)cc2)NC(=O)[C@H](Cc2ccc(OCC(=O)O)cc2)NC(=O)CSC[C@@H](C(=O)N[C@@H](C)C(N)=O)NC(=O)[C@H]([C@@H](C)O)NC(=O)[C@H](C(C)C)NC(=O)[C@H](CC2CCCCC2)NC(=O)[C@H](CCN)NC1=O [Compound 1571]  16.9 nM
5. CC(C)C[C@H]1NC(=O)[C@H](CCCN)NC(=O)[C@H](C(C)C)NC(=O)[C@H](Cc2ccc(-c3ccccc3)cc2)NC(=O)[C@H](C(C)C)NC(=O)[C@H](Cc2c[nH]c3ccccc23)NC(=O)[C@H](CC(=O)O)NC(=O)[C@H](Cc2ccc(OCC(=O)O)cc2)NC(=O)[C@H](CN)NC(=O)CSC[C@@H](C(=O)N[C@@H](C)C(N)=O)NC(=O)[C@H]([C@@H](C)O)NC(=O)[C@H](C(C)C)NC(=O)[C@H](Cc2ccccc2)NC(=O)[C@H](CCN)NC1=O [Compound 1661] ({CH2CO}-[Dap]Y(Carboxymethyl)DWV[Bip]V[Orn][dL][Dab]FVTCA-NH2; thioether N-14)  17 nM
6. CCC(C)[C@@H]1NC(=O)[C@H](Cc2ccc(-c3ccccc3)cc2)NC(=O)[C@H](C(C)C)NC(=O)[C@H](Cc2cccc(C)c2)NC(=O)[C@H](CC(=O)O)NC(=O)[C@H](Cc2ccc(-c3cccc(C(=O)O)c3)cc2)NC(=O)[C@H](CC(N)=O)NC(=O)CSC[C@@H](C(=O)N[C@@H](C)C(N)=O)NC(=O)[C@H]([C@@H](C)O)NC(=O)[C@H](C(C)C)NC(=O)[C@H](CC2CCCCC2)NC(=O)[C@H](CCN)NC(=O)[C@@H](CC(C)C)NC(=O)[C@H](CCCN)NC1=O (stereo partly drawn) [Compound 2222]  25 nM
7. CC(C)C[C@H]1NC(=O)[C@H](CCCN)NC(=O)[C@H](Cc2ccc(C(=O)O)cc2)NC(=O)[C@H](Cc2ccc(-c3ccccc3)cc2)NC(=O)[C@H]([C@@H](C)c2c[nH]c3ccccc23)NC(=O)[C@H](Cc2cccc(C(F)(F)F)c2)NC(=O)[C@H](CC(=O)O)NC(=O)[C@H](Cc2ccc(C(=O)O)cc2)NC(=O)[C@H](CN2CCOCC2)NC(=O)CSC[C@@H](C(=O)N[C@@H](CCN)C(N)=O)NC(=O)[C@H](CCC(=O)O)NC(=O)[C@H](C(C)C)NC(=O)[C@H](CC2CCCCC2)NC(=O)[C@H](CCN)NC1=O [Example 2748] ({CH2CO}-[Ala(morpholin-4-yl)][Phe(4-COOH)]D[Phe(3-CF3)][Trp(βS-Me)][Bip][Phe(4-COOH)][Orn][dL][Dab][Cha]VEC[Dab]-NH2; thioether N-14)  25.2 nM
8. CCCC[C@H]1C(=O)N[C@@H](Cc2ccc(C(=O)O)cc2)C(=O)N[C@@H](CC(=O)O)C(=O)N[C@@H](Cc2cccc(C)c2)C(=O)N[C@@H](Cc2ccc(OCC(=O)O)cc2)C(=O)N[C@@H](Cc2ccc(-c3ccccc3)cc2)C(=O)N[C@@H](Cc2ccc(OCC(=O)O)cc2)C(=O)N[C@@H](CCCN)C(=O)N[C@H](CC(C)C)C(=O)N[C@@H](CCN)C(=O)N[C@@H](CC2CCCCC2)C(=O)N[C@@H](C(C)(C)O)C(=O)N[C@@H](CCC(=O)O)C(=O)N[C@H](C(=O)N[C@@H](CCN)C(N)=O)CSCC(=O)N1C [Compound 2688] ({CH2CO}-[NMeNle][Phe(4-COOH)]D[Phe(3-Me)]Y(Carboxymethyl)[Bip]Y(Carboxymethyl)[Orn][dL][Dab][Cha][Val(3-OH)]EC[Dab]-NH2; thioether N-14)  41.3 nM
9. CC(C)C[C@@H]1NC(=O)[C@H](Cc2c[nH]c3ccccc23)NC(=O)[C@H](CC(=O)O)NC(=O)[C@H](Cc2ccc(O)cc2)NC(=O)[C@H](Cc2ccccc2)NC(=O)CSC[C@@H](C(=O)N[C@@H](C)C(N)=O)NC(=O)[C@H](CO)NC(=O)[C@H](C(C)C)NC(=O)[C@H](CC(C)C)NC(=O)[C@H](CC(N)=O)NC(=O)[C@@H](C)NC(=O)[C@@H](CN)NC(=O)[C@H](C(C)C)NC(=O)[C@H](Cc2ccc(-c3ccccc3)cc2)NC1=O [Compound 2002] ({CH2CO}-FYDWL[Bip]V[dDap][dA]NLVSCA-NH2; thioether N-14)  54.1 nM
10. CCC(C)[C@@H]1NC(=O)[C@H](Cc2ccc(-c3ccccc3)cc2)NC(=O)[C@H](CC2CCCCC2)NC(=O)[C@H](Cc2c[nH]c3ccccc23)NC(=O)[C@H](CC(=O)O)NC(=O)[C@H](Cc2ccc(OCC(=O)O)cc2)NC(=O)[C@H](C(C)O)NC(=O)CSC[C@@H](C(=O)N[C@@H](CC(N)=O)C(=O)O)NC(=O)[C@H](CO)NC(=O)[C@H](C(C)C)NC(=O)[C@H](CC(C)C)NC(=O)[C@H](CCN)NC(=O)[C@@H](CC(C)C)NC(=O)[C@H](CCCN)NC1=O (stereo partly drawn) [Compound 2575] ({CH2CO}-[Thr(3ξ)]Y(Carboxymethyl)DW[Cha][Bip][Ile(3ξ)][Orn][dL][Dab]LVSCN-OH; thioether N-14)  60.1 nM
11. CC(C)C[C@@H]1NC(=O)[C@H](CCCNC(=N)N)NC(=O)[C@@H](CC(C)C)NC(=O)[C@H](CCN)NC(=O)[C@H](CCCNC(=N)N)NC(=O)[C@H](Cc2ccc(-c3ccccc3)cc2)NC(=O)[C@H](C(C)C)NC(=O)[C@H](Cc2c[nH]c3ccccc23)NC(=O)[C@H](CC(=O)O)NC(=O)[C@H](Cc2ccc(O)cc2)NC(=O)[C@H](CC(N)=O)NC(=O)CSC[C@@H](C(=O)N[C@@H](C)C(N)=O)NC(=O)[C@H]([C@@H](C)O)NC(=O)[C@H](C(C)C)NC1=O [Compound 1011] ({CH2CO}-NYDWV[Bip]R[Dab][dL]RLVTCA-NH2; thioether N-14)  67.1 nM
12. CC(C)C[C@H]1NC(=O)[C@H](CCCN)NC(=O)[C@H](CCCCN)NC(=O)[C@H](Cc2ccc(-c3ccccc3)cc2)NC(=O)[C@H](C(C)C)NC(=O)[C@H](Cc2c[nH]c3ccccc23)NC(=O)[C@H](CC(=O)O)NC(=O)[C@H](Cc2ccncc2)NC(=O)[C@H](CN)NC(=O)CSC[C@@H](C(=O)N[C@@H](CCCN)C(N)=O)NC(=O)[C@H](CCCN)NC(=O)[C@H](C(C)C)NC(=O)[C@H](CC2CCCCC2)NC(=O)[C@H](CCN)NC1=O [Compound 2253] ({CH2CO}-[Dap][4Pal]DWV[Bip]K[Orn][dL][Dab][Cha]V[Orn]C[Orn]-NH2; thioether N-14)  138 nM
13. CC(C)C[C@H]1NC(=O)[C@H](CCCN)NC(=O)[C@H](CCC(=O)O)NC(=O)[C@H](Cc2ccc(-c3ccccc3)cc2)NC(=O)[C@H](C(C)C)NC(=O)[C@H](Cc2c[nH]c3ccccc23)NC(=O)[C@H](CC(=O)O)NC(=O)[C@H](Cc2ccc(OCC(=O)O)cc2)NC(=O)[C@H](CN)NC(=O)CSC[C@@H](C(=O)N[C@@H](C)C(N)=O)NC(=O)[C@H]([C@@H](C)O)NC(=O)[C@H](C(C)C)NC(=O)[C@H](Cc2cc(F)c(F)cc2F)NC(=O)[C@H](CCN)NC1=O [Compound 1477]  144 nM
14. COC[C@@H]1NC(=O)[C@H](Cc2ccc(OCC(=O)O)cc2)NC(=O)[C@H](CN)NC(=O)CSC[C@@H](C(=O)N[C@@H](C)C(N)=O)NC(=O)[C@H]([C@@H](C)O)NC(=O)[C@H](C(C)C)NC(=O)[C@H](CC2CCCCC2)NC(=O)[C@H](CCN)NC(=O)[C@@H](CC(C)C)NC(=O)[C@H](CCCN)NC(=O)[C@H](CCC(=O)O)NC(=O)[C@H](Cc2ccc(-c3ccccc3)cc2)NC(=O)[C@H](C(C)C)NC(=O)[C@H](Cc2c[nH]c3ccccc23)NC1=O [Compound 1500] ({CH2CO}-[Dap]Y(Carboxymethyl)S(Me)WV[Bip]E[Orn][dL][Dab][Cha]VTCA-NH2; thioether N-14)  238 nM
15. CC(C)C[C@H]1NC(=O)[C@H](CCCN)NC(=O)[C@H](CCC(=O)O)NC(=O)[C@H](Cc2ccc(-c3ccccc3)cc2)NC(=O)[C@H](C(C)C)NC(=O)[C@H](Cc2c[nH]c3ccccc23)NC(=O)[C@H](CO)NC(=O)[C@H](Cc2ccc(OCC(=O)O)cc2)NC(=O)[C@H](CN)NC(=O)CSC[C@@H](C(=O)N[C@@H](C)C(N)=O)NC(=O)[C@H]([C@@H](C)O)NC(=O)[C@H](C(C)C)NC(=O)[C@H](CC2CCCCC2)NC(=O)[C@H](CCN)NC1=O [Compound 1498] ({CH2CO}-[Dap]Y(Carboxymethyl)SWV[Bip]E[Orn][dL][Dab][Cha]VTCA-NH2; thioether N-14)  366 nM

Source: patent publication US20250163104A1, “MACROCYCLIC IMMUNOMODULATORS” (priority 2021, published 2025)
